Laboratory results taken from paper PMC11944851, “Computationally Guided Design, Synthesis, and Evaluation of Novel Non-Hydroxamic Histone Deacetylase Inhibitors, Based on N-Trifluoroacetamide as a Zinc-Binding Group, Against Breast Cancer” (Pharmaceuticals, 2025).
Like-named read-outs stand apart in the source and are kept apart here.

Columns and labels:
[1] = system: HDACs in nuclear extract of HeLa cells; assay: HDAC inhibitory activity, fluorescence assay in HeLa nuclear extract; format: biochemical
Protocol: In this in vitro assay, residual HDAC activity was measured in a nuclear extract of HeLa cells after incubation with the different compounds at 5 µM, followed by single endpoint fluorescence measurement.
To obtain nuclear extracts, HeLa cell cultures were used. The HeLa cell line was cultured in high-glucose DMEM medium with phenol red, supplemented with 8% fetal bovine serum (Gibco, Waltham, MA, USA), 1% Penicillin/Streptomycin (10,000 U/mL, Gibco, Waltham, MA, USA), and 1% non-essential amino acids (Gibco, Waltham, MA, USA). Cells were maintained in an incubator at 37 °C and 5% CO2 atmosphere. To obtain the required number of cells for nuclear extraction, two 150 cm^2 flasks were cultured, resulting in approximately 2 × 10^7 cells. The cells were trypsinized with a 10% V/V trypsin solution (Gibco, Waltham, MA, USA) and subsequently centrifuged at 3000 rpm for 10 min for counting with trypan blue using an automatic counter (Mart-Counter 3000, Corning, NY, USA). Solutions for nuclear material extraction were prepared following the protocol of the commercial kit Abcam Ab156064 (ABCAM, Milpitas, CA, USA). For the lysis buffer (solution A), 10 mL was prepared with Tris-HCl (10 mM) pH 7.5, NaCl (10 mM), MgCl2 (15 mM), sucrose (250 mM), EGTA (0.1 mM), and NP-40 (0.5%). For the sucrose buffer (solution B), 15 mL was prepared with Tris-HCl (10 mM) pH 7.5, NaCl (10 mM), MgCl2 (3 mM), and sucrose (30%). For the extraction buffer (solution C), 10 mL was prepared with NaCl (420 mM), EGTA (0.1 mM), HEPES-KOH (50 mM, pH 7.5), EDTA Na₂ (0.5 mM), and glycerol (10%). For every 1 × 10^7 of cells, 1 mL of solution A (lysis buffer) was added and vortexed for 10 s, followed by a 15 min rest in an ice bath. Then, 4 mL of solution B (sucrose buffer) was added, and the mixture was centrifuged at 1300× g for 10 min at 4 °C. The supernatant was discarded, and the nuclear pellet was washed with a solution of NaCl (10 mM) and Tris-HCl (10 mM) at pH 7.5. The nuclear pellet was then resuspended in 100 µL of solution C (extraction buffer), sonicated for 30 s, and placed in an ice bath for 30 min. The nuclear solution was centrifuged at 20,000× g for 10 min and the supernatant, containing the nuclear extract, was collected. The nuclear extracts were stored at −80 °C. The Lowry colorimetric assay was used to standardize the protein concentration of the obtained nuclear extracts. A sample of the nuclear extract and a sample of bovine serum albumin as a control were each added to 1 mL of Lowry reagent (sodium tartrate 0.1 M, sodium bicarbonate 0.1 M, CuSO4 0.01 M, and 50% Folin reagent).
Prior to the experiment, a calibration curve was performed to ensure linearity.
Reactions were prepared in a 96-well plate following the specified volumes and conditions. Initially, the appropriate volume of deionized water (ddH2O) and 10 μL of buffer were added to each well. Subsequently, 5 μL of either acetylated or deacetylated substrate was added, depending on the experimental group.
Inhibition controls included Trichostatin A (TSA) at 1 mM, with 2 μL added to achieve a final concentration of 20 μM. The reaction was initiated by adding 4 μL of HeLa nuclear extract to each well, except for the developer control wells. The plate was incubated at 37 °C for 30 min, followed by the addition of 10 μL of developer solution. After a second incubation at 37 °C for another 30 min, fluorescence was measured using a plate reader with an excitation/emission of 350–380 nm/440–460 nm.
Remaining HDAC activity was estimated using the calibration curve, where the fluorescence units (AFU) obtained for each condition were converted into deacetylated substrate concentration (μM).

MDA-MB-231 cells = assay: MTT cell viability, MDA-MB-231; format: cell-based; conditions: for IC50: MTT, read-out: Cytotoxic Activity IC50 MDA-MB-231; for Cytotoxic activity, initial viability experiment: MDA-MB-231, 72 h of treatment; for Selectivity Index MCF-10A/ MDA-MB-231: ratio of IC50
Protocol: (§1) The BC cell lines MCF-7 and MDA-MB-231 were cultured in high-glucose DMEM medium with phenol red, supplemented with 7% and 10% fetal bovine serum (Gibco, Waltham, MA, USA), respectively, 1% Penicillin/Streptomycin (10,000 U/mL, Gibco, Waltham, MA, USA), and 1% non-essential amino acids (Gibco, Waltham, MA, USA). Cell cultures were maintained in a temperature-controlled incubator at 37 °C and 5% CO2 atmosphere. For the 72 h assays with MDA-MB-231, 1.8 x 10³ cells/well were seeded in 100 µL of medium.
(§2) The 3-(4,5-dimethylthiazol-2-yl)-2,5-diphenyl tetrazolium bromide assay was used to evaluate the effect of the designed compounds on cell viability. These compounds were initially dissolved in DMSO (dimethyl sulfoxide) as stock solutions at 150 mM. Cells were seeded in 96-well plates (NEST Biotechnology Co., Wuxi, China) at different densities, depending on the cell line used and the incubation time with the treatments, and left in 100 µL of the corresponding culture medium for 24 h to allow for adhesion. Then, the cells were treated with different concentrations of each compound, maintaining a maximum of 0.46% DMSO. After 48 or 72 h of treatment, 20 µL of MTT (5 mg/mL) in phosphate-buffered saline (PBS; Sigma) solution was added to each well and incubated again for 3 h. Subsequently, the blue formazan compound derived from the MTT was dissolved in 100 µL of DMSO. The optical density of the wells was measured at 550 nm using an ELISA reader (MultiSkan, Thermo Scientific, Waltham, MA, USA). Finally, cell viability was expressed as a percentage relative to the negative control (untreated and 0.46% DMSO).
(§3) Cytotoxicity data were analyzed using one-way ANOVA to evaluate differences between the treated groups and the negative control (DMSO). Multiple comparisons with the negative control were performed using Dunnett’s post hoc test. Statistical analysis was performed using GraphPad Prism 10 software (free trial, https://www.graphpad.com/demos/, accessed on 26 June 2024). For the calculation of the IC50s of the compounds, cytotoxicity responses were fitted to a variable slope sigmoidal equation (log(inhibitor) vs. normalized response). A p < 0.05 value was considered statistically significant.

MCF-7 cells = assay: MTT cell viability, MCF-7; format: cell-based; conditions: for IC50: MTT, read-out: Cytotoxic Activity IC50 MCF-7; for Selectivity Index MCF-10A/ MCF-7: ratio of IC50
Protocol: as §1, §2, §3

[2] = MTT cell viability, non-tumorigenic MCF-10A; format: cell-based; conditions: human, MCF-10A non-cancerous mammary epithelial cells, MTT, non-tumorigenic breast cells, read-out: Cytotoxic Activity IC50 MCF-10A
Protocol: (§4) For the culture of normal breast epithelial cells MCF-10A, DMEM-F12 medium without phenol red was used, supplemented with 5% fetal bovine serum (Gibco, Waltham, MA, USA), 1% Penicillin/Streptomycin (10,000 U/mL, Gibco, Waltham, MA, USA), 1% non-essential amino acids (Gibco, Waltham, MA, USA), 0.33% hydrocortisone, 0.2% insulin (100 U/mL), and 0.002% EGF (1 µg/µL). For the assays with MCF-10A cells, 2.5 × 10^3 cells/well were seeded in 100 µL of medium.
as §2, §3

MCF-10A cells = assay: MTT cell viability, non-tumorigenic MCF-10A; format: cell-based; conditions: 72 h
Protocol: as §4, §2, §3

[3] = 5 µM, single endpoint fluorescence
[4] = Homo sapiens, MDA-MB-231, 72 h, 72 h

Compound | Effect on HDAC activity [1, 3] | IC50 (MDA-MB-231 cells; [4]) | Cytotoxic activity, initial viability experiment (MDA-MB-231 cells) | Selectivity Index MCF-10A/ MDA-MB-231 (MDA-MB-231 cells) | IC50 (MCF-7 cells; Homo sapiens, MCF7, 72 h, 72 h) | Selectivity Index MCF-10A/ MCF-7 (MCF-7 cells) | further results
CC(=O)NCCCCCC(=O)Nc1ccccc1O [5a, 6-Acetamido-N-(2-hydroxyphenyl) Hexanamide] | slight decrease in HDACs activity | – | – | – | – | – | –
CC(=O)NCCCCCC(=O)Nc1ccc(O)cc1 [5b, 6-Acetamido-N-(4-hydroxyphenyl) Hexanamide] | – | 121 ± 26.7 µM | significant cytotoxic activity | 1.39 | 230 µM | 0.74 | IC50 (MCF-7 cells; 72 h): 228 ± 52.9 µM; IC50 at 72 h [2]: 169 ± 20.6 µM
O=C(CCCCCNC(=O)C(F)(F)F)Nc1ccccc1O [6a, N-(2-hydroxyphenyl)-6-(2,2,2-trifluoroacetamido) Hexanamide] | slight decrease in HDACs activity | 226 µM | significant cytotoxic activity | >2.66 | 254 ± 34.4 µM | >2.36 | IC50 (MDA-MB-231 cells; 72 h): 225 ± 17.6 µM; fold less toxic than SAHA in MCF-10A cells (MCF-10A cells): ≈ 200 fold
O=C(CCCCCNC(=O)C(F)(F)F)Nc1ccc(O)cc1 [6b, N-(4-hydroxyphenyl)-6-(2,2,2-trifluoroacetamido) Hexanamide] | – | 76.7 µM | significant cytotoxic activity | 2.01 | 45.7 ± 6.91 µM | 3.38 | fold more potent than 5b in triple-negative breast cancer cells (MDA-MB-231 cells; 72 h): 1.5 fold; IC50 (MDA-MB-231 cells; 72 h): 76.7 ± 8.52 µM; fold more active than 5b in ER-positive cells (MCF-7 cells; 72 h): 5 fold; IC50 at 72 h [2]: 155 ± 21.6 µM; fold less toxic than SAHA in MCF-10A cells (MCF-10A cells): more than 50 fold
O=C(CCCCCCC(=O)Nc1ccccc1)NO [SAHA, suberoylanilide hydroxamic acid, reference compound] | reduced HDAC activity almost completely | – | – | – | – | – | –
CC(=O)NCCCCCC(=O)O [compound 2, 6-Acetamidohexanoic Acid] | slight decrease in HDACs activity | – | – | – | – | – | –
O=C(O)CCCCCNC(=O)C(F)(F)F [compound 3, 6-(2,2,2-trifluoroacetamido) Hexanoic Acid] | slight decrease in HDACs activity | – | – | – | – | – | –
Trichostatin A [TSA, reference compound] | – | – | – | – | – | – | Effect on HDAC activity ([1]; TSA 20 µM): reduced HDAC activity almost completely
